Measured values: patent US20250152577A1, “Pharmaceutical Composition of Ethidium Bromide and Use in Treating Cancer” (RUIJIN HOSPITAL, SHANGHAI JIAOTONG UNIVERSITY SCHOOL OF …, priority 2022, published 2025)

Test system: AOM+DSS-induced colorectal tumor
Assay: AOM+DSS-induced spontaneous colorectal cancer mouse model
Type: in vivo, mice
Conditions: zalcitabine 33 mg/Kg alone, one month
Method: The classical intraperitoneal injection of AOM and the spontaneous colorectal cancer formation by three rounds of DSS were utilized to construct a tumor mouse model. Mice were treated with ethidium bromide (500 mg/L dissolved in drinking water) one week after completion of the construction. […] Mice were sacrificed and their colorectum was taken for photographic observation and fixed staining.
To further verify the above results, we then expanded the sample size to about 10-16 mice per group and still used the above AOM+DSS protocol to induce spontaneous colorectal cancer formation in mice. […] Meanwhile, since it has been reported that zalcitabine (ddC) can effectively impair the function of mitochondria (mainly the replication of mtDNA, similar to ethidium bromide), we added the experimental group of zalcitabine (33 mg/Kg) as a control.
In addition, in order to investigate in what way ethidium bromide clears tumors in mice, we also tested cell proliferation (FIGS. 8A and B) and apoptosis (FIG. 8C-F) in tumor tissues and normal tissues surrounding the tumors in different treatment groups. Among them, cell proliferation was detected by immunohistochemistry of Ki67-positive cells, and apoptosis was detected by immunofluorescence staining of cleaved Caspase3.
To further verify whether ethidium bromide is still effective against already existing larger tumors (advanced colorectal cancer), we set aside a group of control mice (started administration 5 weeks after the end of induction, equivalent to the control group of mice described above) to administer them by gavage (20 mg/Kg per day).
We investigated the mechanism of ethidium bromide-induced apoptosis in tumor cells. First, tumor tissues treated with ethidium bromide (mice shown in FIGS. 7 and 8, treated for 4 weeks at 20 mg/Kg per day) were subjected to SDS-Loading buffer boiling lysis and tested for associated signaling pathways by Western blotting.

In the case of `Nc1ccn([C@H]2CC[C@@H](CO)O2)c(=O)n1` [zalcitabine, reference compound], the “effect on spontaneous colorectal tumors” value is reported as “had no effect”.
